Data from patent US20260001889A1, “COMPOSITIONS USEFUL FOR MODULATING SPLICING” (Skyhawk Therapeutics, Inc., priority 2022, published 2026).

What was measured:
[1] = system: ATXN3 transcripts containing exon 4; test: ATXN3 Quantitative Splicing Assay (qPCR, E4E5 primers/probe); format: cell-based; settings: Homo sapiens, SK-N-MC cells, compounds for 24 h
Outline: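 Exon 4-containing ATXN3 transcripts are quantified by TaqMan qPCR (E4E5 primers/probe) on cell-lysate cDNA, with total ATXN3 from the E8E9 set. Source cells: human neuroblastoma SK-N-MC, exposed for 24 h to compound at 30 μM down to 0.6 nM.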

total ATXN3 protein = test: ATXN3 Total Protein Assay (Mesoscale Discovery, SK-N-MC cells); format: cell-based, Human; settings: incubation for 48 hours, MSD assay
Outline: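 Readout: MSD electrochemiluminescence immunoassay of lysates, calibrated with recombinant ATXN3 and using mouse/rabbit anti-ATXN3 antibody pair. Cells (SK-N-MC, human) were exposed for 48 h to compound doses between 30 μM and 0.6 nM.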

ATXN3-HiBiT protein = test: ATXN3 Total Protein Assay (Kelly-ATXN3-HiBiT luminescence); format: cell-based; settings: Kelly-ATXN3-HiBiT cells, 48 h after addition of compound
Outline: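 Endogenous ATXN3-HiBiT protein in knock-in Kelly neuroblastoma cells measured by lytic HiBiT luminescence 48 h post-compound (added 24 h after seeding 2000 cells/well). Values are fold changes relative to DMSO, with viability from a parallel CellTiter-Glo plate.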

IC50 [1] [nM] | IC50 (total ATXN3 protein) [nM] | EC50 (ATXN3-HiBiT protein) [nM] | SMILES
101 to 500 | 101 to 500 | 101 to 500 | NC(Cc1oc2c(NCc3cccs3)cc(Cl)nc2c1Br)CC1(F)CC1 (stereo not drawn) [Compound 85, 2-[2-amino-3-(1-fluorocyclopropyl)propyl]-3-bromo-5-chloro-7-thenylamino-1-oxa-4-azaindene]
0.01 to 100 | 0.01 to 100 | 0.01 to 100 | C#Cc1c(C[C@@H](N)[C@H](C)F)oc2c(NCc3cccs3)cc(Cl)nc12 [Compound 123, 2-[(2R,3S)-2-amino-3-fluorobutyl]-5-chloro-3-ethynyl-7-thenylamino-1-oxa-4-azaindene]
101 to 500 | 101 to 500 | 0.01 to 100 | Cc1cc(NCc2cccs2)c2oc(C[C@@H](N)CO)c(Br)c2n1 [Compound 59, (R)-2-amino-3-(3-bromo-5-methyl-7-thenylamino-1-oxa-4-aza-2-indenyl)-1-propanol]
101 to 500 | 101 to 500 | 101 to 500 | C[C@H](F)[C@H](N)Cc1oc2c(NCc3sccc3F)cc(Cl)nc2c1Cl [Compound 140, 2-[(2R,3S)-2-amino-3-fluorobutyl]-3,5-dichloro-7-{[(3-fluoro-2-thienyl)methyl]amino}-1-oxa-4-azaindene]
101 to 500 | 101 to 500 | 101 to 500 | CC[C@H](N)Cc1oc2c(NCc3cccs3)cc(Cl)nc2c1C [Compound 13, 2-[(S)-2-aminobutyl]-5-chloro-3-methyl-7-thenylamino-1-oxa-4-azaindene]
501 to 5000 | 101 to 500 | 101 to 500 | CC[C@H](N)Cc1oc2c(NCc3cccs3)cc(Cl)nc2c1Br [Compound 169, 2-[(S)-2-aminobutyl]-3-bromo-5-chloro-7-thenylamino-1-oxa-4-azaindene]
0.01 to 100 | 0.01 to 100 | 0.01 to 100 | N[C@@H](CCOC(F)F)Cc1oc2c(NCc3cccs3)cc(Cl)nc2c1Br [Compound 154, (S)-2-(2-amino-4-(difluoromethoxy)butyl)-3-bromo-5-chloro-N-(thiophen-2-ylmethyl)furo[3,2-b]pyridin-7-amine]
501 to 5000 | 501 to 5000 | 501 to 5000 | C[C@@H](F)[C@H](N)Cc1oc2c(NCc3ccco3)cc(Cl)nc2c1Br [Compound 114, 2-[(2R,3R)-2-amino-3-fluorobutyl]-3-bromo-5-chloro-7-(furfurylamino)-1-oxa-4-azaindene]
101 to 500 | 101 to 500 | 101 to 500 | N[C@@H](CO)C(F)(F)c1oc2c(NCc3cccs3)cc(Cl)nc2c1Br [Compound 192, (S)-2-amino-3-(3-bromo-5-chloro-7-thenylamino-1-oxa-4-aza-2-indenyl)-3,3-difluoro-1-propanol]
0.01 to 100 | 0.01 to 100 | 101 to 500 | C[C@H](F)[C@H](N)Cc1oc2c(NCc3nccs3)cc(Cl)nc2c1Cl [Compound 109, 2-[(2R,3S)-2-amino-3-fluorobutyl]-3,5-dichloro-7-{[(1,3-thiazol-2-yl)methyl]amino}-1-oxa-4-azaindene]
101 to 500 | 101 to 500 | 101 to 500 | C#Cc1c(C[C@@H](N)CC(F)(F)F)oc2c(NCc3cccs3)cc(Cl)nc12 [Compound 121, 2-[(R)-2-amino-4,4,4-trifluorobutyl]-5-chloro-3-ethynyl-7-thenylamino-1-oxa-4-azaindene]
101 to 500 | 101 to 500 | 101 to 500 | Cc1c(C[C@@H](N)CCF)oc2c(NCc3cccs3)cc(Cl)nc12 [Compound 31, 2-[(2R)-2-amino-4-fluorobutyl]-5-chloro-3-methyl-N-(thiophen-2-ylmethyl)furo[3,2-b]pyridin-7-amine]
501 to 5000 | 501 to 5000 | 501 to 5000 | N[C@H](Cc1oc2c(NCc3ccco3)cc(Cl)nc2c1Cl)CC(F)(F)F [Compound 27, 2-[(R)-2-amino-4,4,4-trifluorobutyl]-3,5-dichloro-7-(furfurylamino)-1-oxa-4-azaindene]
0.01 to 100 | 0.01 to 100 | 0.01 to 100 | C[C@H](F)[C@H](N)Cc1oc2c(NCc3cccs3)cc(Cl)nc2c1Br [Compound 43, 2-[(2R,3S)-2-amino-3-fluorobutyl]-3-bromo-5-chloro-N-(thiophen-2-ylmethyl)furo[3,2-b]pyridin-7-amine]
501 to 5000 | 501 to 5000 | 101 to 500 | N[C@H](Cc1oc2c(NCc3cccs3)cc(Cl)nc2c1Cl)CC(F)(F)F [Compound 25, 2-[(R)-2-amino-4,4,4-trifluorobutyl]-3,5-dichloro-7-thenylamino-1-oxa-4-azaindene]
101 to 500 | 101 to 500 | 501 to 5000 | N[C@H](Cc1oc2c(NCc3ccco3)cc(Cl)nc2c1Br)CC(F)(F)F [Compound 26, 2-[(R)-2-amino-4,4,4-trifluorobutyl]-3-bromo-5-chloro-7-(furfurylamino)-1-oxa-4-azaindene]
101 to 500 | 101 to 500 | 101 to 500 | C[C@H](F)[C@H](N)Cc1oc2c(NCc3sccc3F)cc(Cl)nc2c1Br [Compound 96, 2-[(2R,3S)-2-amino-3-fluorobutyl]-3-bromo-5-chloro-7-{[(3-fluoro-2-thienyl)methyl]amino}-1-oxa-4-azaindene]
101 to 500 | 101 to 500 | 501 to 5000 | N[C@@H](COC(F)(F)F)Cc1oc2c(NCc3cccs3)cc(Cl)nc2c1Br [Compound 116, 2-[(R)-2-amino-3-trifluoromethoxypropyl]-3-bromo-5-chloro-7-thenylamino-1-oxa-4-azaindene]
101 to 500 | 101 to 500 | 101 to 500 | COC[C@H](N)Cc1oc2c(NCc3ccncc3)cc(Cl)nc2c1Br [Compound 48, (R)-2-(2-amino-3-methoxypropyl)-3-bromo-5-chloro-N-(pyridin-4-ylmethyl)furo[3,2-b]pyridin-7-amine]
0.01 to 100 | 0.01 to 100 | 0.01 to 100 | N[C@@H](CO)Cc1oc2c(NCc3cccs3)cc(Cl)nc2c1Br [Compound 20, (R)-2-amino-3-(3-bromo-5-chloro-7-thenylamino-1-oxa-4-aza-2-indenyl)-1-propanol]

SMILES | IC50 [1] [nM] | IC50 (total ATXN3 protein) [nM] | EC50 (ATXN3-HiBiT protein) [nM]
C=Cc1c(C[C@H](C)N)oc2c(NCc3cccs3)cc(Cl)nc12 [Compound 194, 2-[(S)-2-aminopropyl]-5-chloro-7-thenylamino-3-vinyl-1-oxa-4-azaindene] | 501 to 5000 | 501 to 5000 | 101 to 500
C[C@H](N)Cc1oc2c(NCc3ccco3)cc(Cl)nc2c1Br [Compound 34, 2-[(S)-2-aminopropyl]-3-bromo-5-chloro-7-(furfurylamino)-1-oxa-4-azaindene] | 0.01 to 100 | 0.01 to 100 | 0.01 to 100
C[C@H](N)Cc1oc2c(NCc3ncco3)cc(Cl)nc2c1Br [Compound 124, 2-[(2S)-2-aminopropyl]-3-bromo-5-chloro-N-(1,3-oxazol-2-ylmethyl) furo[3,2-b]pyridin-7-amine] | 501 to 5000 | 501 to 5000 | 501 to 5000
C[C@H](N)Cc1oc2c(NCc3cccs3)cc(C(=O)O)nc2c1Br [Compound 167, 2-[(2S)-2-aminopropyl]-3-bromo-7-[(thiophen-2-ylmethyl)amino]furo[3,2-b]pyridine-5-carboxylic acid] | 10000 to 40000 | 10000 to 40000 | 10000 to 40000
